Assay results as given in ChEMBL document CHEMBL1145852, “Drug rings database with web interface. A tool for identifying alternative chemical rings in lead discovery programs” (J Med Chem, 2003).

Target: T1, Endothelin-1 receptor (Homo sapiens, UniProt P25101)
T1 sequence (P25101 whole entry): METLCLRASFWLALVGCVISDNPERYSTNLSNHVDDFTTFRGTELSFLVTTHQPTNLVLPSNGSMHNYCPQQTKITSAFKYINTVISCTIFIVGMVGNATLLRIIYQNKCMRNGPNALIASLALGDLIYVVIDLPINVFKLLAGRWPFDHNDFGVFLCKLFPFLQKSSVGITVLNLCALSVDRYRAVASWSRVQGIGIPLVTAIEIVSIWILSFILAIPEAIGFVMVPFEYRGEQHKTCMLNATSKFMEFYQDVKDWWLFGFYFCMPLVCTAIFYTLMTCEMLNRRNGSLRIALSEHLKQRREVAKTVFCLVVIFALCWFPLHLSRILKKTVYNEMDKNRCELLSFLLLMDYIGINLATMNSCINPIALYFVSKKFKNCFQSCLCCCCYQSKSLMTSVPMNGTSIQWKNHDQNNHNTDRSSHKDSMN
Assay: Potency at Endothelin A receptor was determined

Compound	IC50
CCCOc1ccc2c(c1)c(-c1ccc3c(c1)OCO3)c(C(=O)O)n2Cc1ccc2nonc2c1	2500 nM
CCCOc1ccc2c(c1)c(-c1ccc3c(c1)OCO3)c(C(=O)O)n2Cc1ccc2nsnc2c1	97 nM
COc1cc2c(-c3ccc4c(c3)OCO4)c(C(=O)O)n(Cc3ccc4nsnc4c3)c2cc1OC	33 nM
CCCOc1ccc2c(c1)c(-c1ccc3c(c1)OCO3)c(C(=O)O)n2Cc1ccc2c(c1)OCO2	250 nM
COc1cc2c(-c3ccc4c(c3)OCO4)c(C(=O)O)n(Cc3ccc4c(c3)OCO4)c2cc1OC	150 nM
